Assay results reported in US11564392B2, “Methods of inactivation of viruses using n-methlyglucamide and its derivatives” (BAYER HEALTHCARE LLC, priority 2017, dated 2023).
Entries after “also recorded” stand apart in the source; their conditions may differ. Where two headings read alike, the source gives them in different places.

Experiments:
X-MuLV [1] = type: cell-based, xenotropic murine leukemia virus; settings: for X-MuLV inactivation (FIG. 4): 0.5×, 1×, 2× of the CMC, room temperature; for X-MuLV inactivation (FIG. 4) / X-MuLV inactivation (FIG. 5): within 30 minutes; for X-MuLV inactivation (FIG. 5): 1× and 2× of the CMC
[2] = 25° C.; cited from earlier work
[3] = type: physicochemical
Description: Each detergent was obtained as powder from the manufacturer and was appropriately weighed and allowed to dissolve in Milli-Q water. […] The detergents were stored in a dark container in 2-8° C. Table 2 lists the manufacturers of the detergent powders and the in-house preparation which are also detailed in the methods section. […] This occurrence has been observed by others as well and may have to do with the increasing fatty chain length that enhances the hydrophobicity thus decreasing the likelihood of solubility, especially in water (Gaber et al., Burczyk, 2007).

X-MuLV [4] = test: X-MuLV inactivation in rFVIII by methylglucamides with or without Tw20, TnBP or NaCl, TCID50 assay; type: cell-based, xenotropic murine leukemia virus
Description: Methylglucamides were tested with other compounds to determine potential synergistic effects on viral inactivation. […] Then, the titers of each samples or controls were assayed using a TCID50 assay previously described. For each experiment (FIGS. 15, 16 and 17), the controls consisted of rFVIII spiked with X-MuLV with no detergent, and the yielded titers within the expected range of about 6.5 log10 TCID50/ml.

BVDV = type: cell-based, bovine viral diarrhea virus; settings: for BVDV inactivation: Mega 10 0.2, 0.3, 0.4% (w/v), Mega 9 1.0% (w/v), 2.0° C.
PRV = type: cell-based, porcine pseudorabies virus
X-MuLV [5] = type: cell-based, xenotropic murine leukemia virus
[6] = target: T1, recombinant FVIII (rFVIII) (Homo sapiens, UniProt P00451); test: Chromogenic assay to assess human Factor VIII activity after detergent incubation; type: biochemical; settings: 0.3% (w/v)
T1 construct: recombinant human factor VIII (rFVIII) (full length wildtype, Bayer in-house preparation); made in house
Description: A diluent control of rFVIII matrix spiked only with Milli-Q H2O was also prepared and incubated under the same conditions. Following the incubation, detergents and diluent control were diluted in 1× assay buffer along with chromogenic assay (Chromogenix COATEST SP4 FVIII Kit, Cat: 82409463) FVIII standard and controls to the appropriate levels. Thirty μL of each detergent, control, and standard were loaded onto a 96-well plate in triplicate. Chromogenic assay reagents were added according to the manufacturer's protocol and incubated at 37.0° C. and 5.0% CO2 for 8 minutes. Assay plate was measured for absorbance t 405 and 492 nm on a Molecular Devices SpectraMax M5 microplate reader. Data was analyzed using SoftMax Pro v5.
The principle of the assay involves a specific step in the blood clotting mechanism, in which Factor X is converted to Factor Xa leading to the hydrolysis of the chromogenic substrate. This reaction is dependent on the activity of Factor VIII (FVIII) and directly correlates to measurable color intensity.

[7] = rFVIII, 2° C., 30 min, Mega 8 1.81%, Mega 9 0.84%, Mega 10 0.20%, Mega 12 0.014% (w/v)
[8] = rFVIII, Room Temperature, 30 min, Mega 8 1.81%, Mega 9 0.45%, Mega 10 0.10%, Mega 12 0.014% (w/v)
[9] = 0.20% (w/v) Mega 10 or 0.71% (w/v) Mega 9, with or without NaCl
[10] = 0.3% (w/v), 2.0° C., 30 minutes

T1 sequence (P00451 20-2351): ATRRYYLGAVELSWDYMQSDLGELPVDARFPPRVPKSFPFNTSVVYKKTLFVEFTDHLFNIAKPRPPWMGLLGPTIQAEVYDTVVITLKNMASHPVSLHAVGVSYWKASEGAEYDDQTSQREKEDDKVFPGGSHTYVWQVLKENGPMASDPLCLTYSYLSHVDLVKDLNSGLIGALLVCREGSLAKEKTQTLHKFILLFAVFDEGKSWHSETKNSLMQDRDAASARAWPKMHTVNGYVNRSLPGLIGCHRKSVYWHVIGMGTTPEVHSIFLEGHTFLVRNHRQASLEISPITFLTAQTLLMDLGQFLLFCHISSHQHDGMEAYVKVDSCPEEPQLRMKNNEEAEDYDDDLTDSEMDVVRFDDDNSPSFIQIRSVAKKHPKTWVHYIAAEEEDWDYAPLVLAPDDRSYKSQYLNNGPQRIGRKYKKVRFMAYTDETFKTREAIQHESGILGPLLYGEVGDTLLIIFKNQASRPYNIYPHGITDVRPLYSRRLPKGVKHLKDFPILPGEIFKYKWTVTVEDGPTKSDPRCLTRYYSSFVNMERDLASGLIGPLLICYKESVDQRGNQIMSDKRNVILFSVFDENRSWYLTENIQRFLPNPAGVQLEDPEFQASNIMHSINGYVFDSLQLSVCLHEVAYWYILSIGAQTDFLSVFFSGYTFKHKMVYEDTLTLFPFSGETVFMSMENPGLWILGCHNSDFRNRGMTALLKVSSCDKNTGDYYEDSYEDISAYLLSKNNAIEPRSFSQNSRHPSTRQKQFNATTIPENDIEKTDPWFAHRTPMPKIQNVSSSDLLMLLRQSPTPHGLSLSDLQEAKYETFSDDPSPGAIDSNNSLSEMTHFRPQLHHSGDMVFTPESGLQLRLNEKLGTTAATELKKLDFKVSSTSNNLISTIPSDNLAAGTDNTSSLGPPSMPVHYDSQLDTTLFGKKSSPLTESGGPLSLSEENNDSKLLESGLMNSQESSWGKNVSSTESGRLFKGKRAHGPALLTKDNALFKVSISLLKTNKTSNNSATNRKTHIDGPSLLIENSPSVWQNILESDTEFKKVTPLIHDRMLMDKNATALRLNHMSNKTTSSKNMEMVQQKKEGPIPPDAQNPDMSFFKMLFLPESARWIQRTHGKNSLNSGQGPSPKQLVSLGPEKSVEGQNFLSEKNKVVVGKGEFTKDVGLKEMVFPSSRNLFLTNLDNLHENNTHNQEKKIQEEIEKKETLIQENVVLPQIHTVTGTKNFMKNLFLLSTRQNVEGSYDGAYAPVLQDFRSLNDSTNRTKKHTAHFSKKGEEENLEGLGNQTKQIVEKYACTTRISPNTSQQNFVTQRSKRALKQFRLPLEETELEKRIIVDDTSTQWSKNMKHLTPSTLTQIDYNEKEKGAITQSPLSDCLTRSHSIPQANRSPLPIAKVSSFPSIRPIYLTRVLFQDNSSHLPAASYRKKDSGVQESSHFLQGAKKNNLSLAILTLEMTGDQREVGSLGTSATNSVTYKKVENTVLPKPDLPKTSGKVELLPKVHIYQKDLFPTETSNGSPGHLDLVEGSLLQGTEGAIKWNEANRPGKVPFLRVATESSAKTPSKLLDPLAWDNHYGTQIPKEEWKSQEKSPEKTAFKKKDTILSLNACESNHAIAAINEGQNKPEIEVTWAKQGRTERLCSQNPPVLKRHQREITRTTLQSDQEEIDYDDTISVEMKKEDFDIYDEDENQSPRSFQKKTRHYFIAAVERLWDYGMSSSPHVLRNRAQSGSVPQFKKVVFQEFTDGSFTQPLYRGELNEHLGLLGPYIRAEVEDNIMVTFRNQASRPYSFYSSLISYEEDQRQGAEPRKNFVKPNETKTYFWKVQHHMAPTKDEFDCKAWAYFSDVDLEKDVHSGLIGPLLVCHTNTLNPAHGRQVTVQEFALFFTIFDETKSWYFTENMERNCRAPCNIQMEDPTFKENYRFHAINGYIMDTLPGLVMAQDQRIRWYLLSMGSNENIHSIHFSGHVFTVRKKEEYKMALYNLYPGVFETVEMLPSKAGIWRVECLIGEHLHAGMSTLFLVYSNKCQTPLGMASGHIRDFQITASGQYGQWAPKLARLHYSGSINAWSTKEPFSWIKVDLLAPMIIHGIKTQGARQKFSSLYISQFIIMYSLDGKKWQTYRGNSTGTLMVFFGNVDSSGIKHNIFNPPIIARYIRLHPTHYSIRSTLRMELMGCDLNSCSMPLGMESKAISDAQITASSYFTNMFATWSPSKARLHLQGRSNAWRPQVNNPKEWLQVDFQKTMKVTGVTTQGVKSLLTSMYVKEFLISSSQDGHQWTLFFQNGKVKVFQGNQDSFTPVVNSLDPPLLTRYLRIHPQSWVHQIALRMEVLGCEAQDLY
T1 sequence (P00451 1668-2351 limits assumed): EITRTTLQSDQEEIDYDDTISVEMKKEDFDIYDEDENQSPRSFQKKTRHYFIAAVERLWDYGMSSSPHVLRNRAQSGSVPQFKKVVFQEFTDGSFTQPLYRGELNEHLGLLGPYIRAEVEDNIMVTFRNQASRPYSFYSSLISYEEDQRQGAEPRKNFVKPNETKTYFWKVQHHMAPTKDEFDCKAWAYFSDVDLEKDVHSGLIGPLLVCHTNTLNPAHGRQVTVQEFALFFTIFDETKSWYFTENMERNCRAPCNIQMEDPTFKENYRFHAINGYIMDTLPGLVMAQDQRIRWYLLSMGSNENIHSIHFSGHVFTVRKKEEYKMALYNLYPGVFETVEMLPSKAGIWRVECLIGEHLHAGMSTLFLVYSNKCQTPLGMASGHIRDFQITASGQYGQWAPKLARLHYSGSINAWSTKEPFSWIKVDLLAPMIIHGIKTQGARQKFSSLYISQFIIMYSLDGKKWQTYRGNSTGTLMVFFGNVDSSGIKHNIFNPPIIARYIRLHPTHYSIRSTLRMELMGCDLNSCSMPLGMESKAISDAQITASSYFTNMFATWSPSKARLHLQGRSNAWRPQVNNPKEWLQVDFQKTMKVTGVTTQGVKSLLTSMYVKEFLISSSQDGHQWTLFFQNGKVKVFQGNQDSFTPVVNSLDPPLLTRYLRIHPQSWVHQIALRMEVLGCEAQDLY

Row | Compound | X-MuLV inactivation (FIG. 4) (X-MuLV [1]) | X-MuLV inactivation (X-MuLV [1]; 0.5×CMC, 2° C., 30 minutes) | X-MuLV inactivation (X-MuLV [1]; 0.5×CMC, 25° C., 30 minutes) | X-MuLV inactivation (FIG. 5) (X-MuLV [1]; 2.0° C.) | Infection observed (X-MuLV [1]; [7]) | Log Reduction Factor (LRF) (X-MuLV [1]; [7]) | Infection observed (X-MuLV [1]; [8]) | Log Reduction Factor (LRF) (X-MuLV [1]; [8]) | CMC [2] | solubilization of 5% (w/v) detergent in water [3] | X-MuLV inactivation (X-MuLV [4]; [9]) | BVDV inactivation (BVDV; 30 minutes) | X-MuLV inactivation (X-MuLV [1]; [10]) | further results
1 | CCCCCCCC(=O)N(C)C[C@H](O)[C@@H](O)[C@H](O)[C@H](O)CO [Mega 8, octanoyl-N-methylglucamide] | completely inactivated | No significant inactivation | No significant inactivation | completely inactivated | No | ≥4.37 | No | ≥4.32 | 58 mM | readily solubilized in water at room temperature | – | – | – | –
2 | CCCCCCCCC(=O)N(C)C[C@H](O)[C@@H](O)[C@H](O)[C@H](O)CO [Mega 9, nonaoyl-N-methylglucamide] | completely inactivated | partially | completely | completely inactivated | No | ≥4.37 | No | ≥4.32 | 19 to 25 mM | readily solubilized in water at room temperature | significantly inactivated | completely inactivated | – | time to inactivate BVDV to the LOD (BVDV; 1.0% (w/v)): ≤ 30 min; BVDV titer (detection limit) (BVDV; 1.0% (w/v), 2.0±1.0° C., 30 minutes): ≤ 2.03 Log10 TCID50/mL
3 | CCCCCCCCCC(=O)N(C)C[C@H](O)[C@@H](O)[C@H](O)[C@H](O)CO [Mega 10, decanoyl-N-methylglucamide] | completely inactivated | partially | completely | completely inactivated | No | ≥4.37 | No | ≥4.32 | 6 to 7 mM | solubilize within 15 minutes | significantly inactivated | completely inactivated | complete X-MuLV inactivation; also recorded: inactivated X-MuLV completely | Infection Observed (X-MuLV [1]): No; Infection observed (X-MuLV [1]): No; LRF (X-MuLV [1]): ≥ 24.45; X-MuLV inactivation kinetics (X-MuLV [1]): immediate decrease (complete inactivation); also recorded: immediately inactivated; X-MuLV titer after treatment (limit of detection) (X-MuLV [1]): ≤ 2.03 TCID50/mL; lowest concentration to quickly and completely inactivate X-MuLV (X-MuLV [1]): approximately 0.23%; time to reach limit of detection (LOD) (X-MuLV [1]): ≤ 5 min; virus titer (X-MuLV [1]): about 2.62 Log10 TCID50/mL; virus titer (complete inactivation) (X-MuLV [1]): ≤ 2.03 Log10 TCID50/mL; X-MuLV inactivation (X-MuLV [4]; 0.30% (w/v) M10 alone, +0.06% (w/v) Tw20, or +0.30% (w/v) TnBP, within 30 min): completely inactivated; PRV titer (limit of detection) (PRV; 0.2 and 0.3%, 2.0±1.0° C., 15 minutes): ≤ 2.03 Log10 TCID50/mL; time to inactivate PRV to the limit of detection (PRV; 0.2 or 0.3 (w/v), 2.0° C.): ≤ 15 min; speed of BVDV inactivation (BVDV; 0.2%): immediately after mixing; X-MuLV titer (limit of detection) (X-MuLV [5]): ≤ 2.03 Log10 TCID50/mL; X-MuLV inactivation (X-MuLV [5]; 0.2, 0.3, 0.4% (w/v) in human IgG and human plasma protein solutions, 2.0° C., 30 minutes): completely inactivated; effect on rFVIII activity ([6]; 2.0° C., 2 hour incubation): maintains its activity; also recorded: no effect on the activity of the protein drug; average activity of rFVIII ([6]; 2.0±1.0° C., 2 hours): 52.26 IU/mL
4 | CCCCCCCCCCCC(=O)N(C)CC(O)C(O)C(O)C(O)CO (stereo not shown) [Mega 12, dodecanoyl-N-methylglucamide] | completely inactivated | No significant inactivation | No significant inactivation | completely inactivated | No | ≥4.37 | No | ≥4.32 | 0.35 mM | not able to dissolve water in a 37 °C water bath | – | – | – | solubilization of 0.15% stock in water [3]: able to come into solution when placed in a 60 °C water bath within 15 minutes
5 | P-tert-Octylphenoxy) polyethoxyethanol [Triton X-100, reference compound] | – | – | – | – | – | – | – | – | – | – | – | – | complete X-MuLV inactivation; also recorded: inactivated X-MuLV completely | X-MuLV titer after treatment (limit of detection) (X-MuLV [1]; [10]): ≤ 2.54 TCID50/mL
